Experimental findings from patent US12077503B2, “Substituted cyclic amides and their use as herbicides” (FMC CORPORATION, priority 2015, dated 2024) are described below.

Holding throughout (assay type): in vivo
The test system of test [1] is ragweed (common ragweed, Ambrosia elatior). The experiment in a line: Test A postemergence. The following applies: Ambrosia artemisiifolia, post-emergence, 240 h, 125 g ai/ha, Postemergence; visual injury after approximately 10 d; 0 to 100 scale where 0 is no effect and 100 is complete control; read-out: Plant response rating, Ragweed. In short, it runs like this: (§1)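 Ratings of 0 (no effect) to 100 (complete control) come from visual comparison with untreated controls roughly 10 d after treatment. Test chemicals, formulated in a non-phytotoxic solvent mixture with surfactant, were applied either as a preemergence directed soil spray on seeded soil or postemergence to one- to two-leaf plants 2 to 10 cm tall.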

For test [2], the system named is ryegrass, Italian (Italian ryegrass, Lolium multiflorum). The experiment in a line: Test A postemergence. As to conditions: Lolium multiflorum, post-emergence, 240 h, 125 g ai/ha, Postemergence; visual injury after approximately 10 d; 0 to 100 scale where 0 is no effect and 100 is complete control; read-out: Plant response rating, Ryegrass, Italian. In short, it runs like this:
as §1

Test [3] has as its system blackgrass (Alopecurus myosuroides). The experiment in a line: Test A postemergence. The following applies: Alopecurus myosuroides, post-emergence, 240 h, 125 g ai/ha, Postemergence; visual injury after approximately 10 d; 0 to 100 scale where 0 is no effect and 100 is complete control; read-out: Plant response rating, Blackgrass. In a few lines: as §1
Test [4] concerns barnyardgrass (Echinochloa crus-galli). As to the kind of experiment: Test A postemergence. As to conditions: Echinochloa crus-galli, post-emergence, 240 h, 125 g ai/ha, Postemergence; visual injury after approximately 10 d; 0 to 100 scale where 0 is no effect and 100 is complete control; read-out: Plant response rating, Barnyardgrass. In short, it runs like this:
as §1

A further test deals with corn (Zea mays). As to the kind of experiment: Test A postemergence. As to conditions: Zea mays, post-emergence, 240 h, 125 g ai/ha, Postemergence; visual injury after approximately 10 d; 0 to 100 scale where 0 is no effect and 100 is complete control. In a few lines:
as §1

The test system of test [5] is giant foxtail (Setaria faberii). The experiment in a line: Test A postemergence. As to conditions: Setaria faberi, post-emergence, 240 h, 125 g ai/ha, Postemergence; visual injury after approximately 10 d; 0 to 100 scale where 0 is no effect and 100 is complete control; read-out: Plant response rating, Foxtail, Giant. In a few lines: as §1
Test [6] concerns wheat (Triticum aestivum). As to the kind of experiment: Test A postemergence. As to conditions: Triticum aestivum, post-emergence, 240 h, 125 g ai/ha, Postemergence; visual injury after approximately 10 d; 0 to 100 scale where 0 is no effect and 100 is complete control; read-out: Plant response rating, Wheat. In short, it runs like this:
as §1

The test system of test [7] is Galium (catchweed bedstraw, Galium aparine). The experiment in a line: Test A postemergence. As to conditions: Galium, post-emergence, 240 h, 125 g ai/ha, Postemergence; visual injury after approximately 10 d; 0 to 100 scale where 0 is no effect and 100 is complete control; read-out: Plant response rating, Galium. In short, it runs like this: as §1
In test [8] the test system is ragweed (common ragweed, Ambrosia elatior). As to the kind of experiment: Test A preemergence. The following applies: Ambrosia artemisiifolia, pre-emergence, 240 h; for pest or weed control at 125 g/ha: 125 g ai/ha, Preemergence, visual injury rating after approximately 10 d, read-out: Ragweed plant response rating (0 to 100 scale, 0 is no effect, 100 is complete control); for pest or weed control at 500 g/ha: 500 g ai/ha, preemergence, visual injury rating about 10 d after treatment, 0 to 100 scale (0 no effect, 100 complete control), read-out: Ragweed plant response rating. In a few lines:
as §1

The subject of test [9] is pigweed (Amaranthus retroflexus). The experiment in a line: Test A preemergence. The following applies: Amaranthus retroflexus, pre-emergence, 240 h; for pest or weed control at 125 g/ha: 125 g ai/ha, Preemergence, visual injury rating after approximately 10 d, read-out: Pigweed plant response rating (0 to 100 scale, 0 is no effect, 100 is complete control); for pest or weed control at 500 g/ha: 500 g ai/ha, preemergence, visual injury rating about 10 d after treatment, 0 to 100 scale (0 no effect, 100 complete control), read-out: Pigweed plant response rating.

The next test concerns Kochia (Kochia scoparia). The experiment in a line: Test A preemergence. As to conditions: Bassia scoparia, pre-emergence, 240 h; for pest or weed control at 125 g/ha: 125 g ai/ha, Preemergence, visual injury rating after approximately 10 d, read-out: Kochia plant response rating (0 to 100 scale, 0 is no effect, 100 is complete control); for pest or weed control at 500 g/ha: 500 g ai/ha, preemergence, visual injury rating about 10 d after treatment, 0 to 100 scale (0 no effect, 100 complete control), read-out: Kochia plant response rating. In short, it runs like this: as §1

In test [10] the test system is ryegrass, Italian (Italian ryegrass, Lolium multiflorum). As to the kind of experiment: Test A preemergence. As to conditions: Lolium multiflorum, pre-emergence, 240 h; for pest or weed control at 125 g/ha: 125 g ai/ha, Preemergence, visual injury rating after approximately 10 d, read-out: Ryegrass, Italian plant response rating (0 to 100 scale, 0 is no effect, 100 is complete control); for pest or weed control at 500 g/ha: 500 g ai/ha, preemergence, visual injury rating about 10 d after treatment, 0 to 100 scale (0 no effect, 100 complete control), read-out: Ryegrass, Italian plant response rating. In short, it runs like this: as §1

The subject of test [11] is barnyardgrass (Echinochloa crus-galli). The experiment in a line: Test A preemergence. As to conditions: Echinochloa crus-galli, pre-emergence, 240 h; for pest or weed control at 125 g/ha: 125 g ai/ha, Preemergence, visual injury rating after approximately 10 d, read-out: Barnyardgrass plant response rating (0 to 100 scale, 0 is no effect, 100 is complete control); for pest or weed control at 500 g/ha: 500 g ai/ha, preemergence, visual injury rating about 10 d after treatment, 0 to 100 scale (0 no effect, 100 complete control), read-out: Barnyardgrass plant response rating. In a few lines: as §1

Test [12] relates to giant foxtail (Setaria faberii). The experiment in a line: Test A preemergence. As to conditions: Setaria faberi, pre-emergence, 240 h; for pest or weed control at 125 g/ha: 125 g ai/ha, Preemergence, visual injury rating after approximately 10 d, read-out: Foxtail, Giant plant response rating (0 to 100 scale, 0 is no effect, 100 is complete control); for pest or weed control at 500 g/ha: 500 g ai/ha, preemergence, visual injury rating about 10 d after treatment, 0 to 100 scale (0 no effect, 100 complete control), read-out: Foxtail, Giant plant response rating. In a few lines:
as §1

In the case of `CN1C[C@H](c2cc(F)cc(F)c2)[C@@H](C(=O)Nc2cc(O)ccc2F)C1=O` [Compound 992], the pest or weed control at 125 g/ha in [1], in [2], in [3], in [4], in [5] and in [7] was 0% throughout. The pest or weed control at 125 g/ha (in [8]; in test [9]; with Kochia (Kochia scoparia); in test [10]; in test [11]; in [12]) was 0% throughout. The same compound yielded a Corn plant response rating (crop injury, 0 = no effect, 100 = complete kill) at 125 g/ha with corn (Zea mays) of 0%. For the same compound, the plant injury at 125 g/ha in [6] came to 0%. The pest or weed control at 500 g/ha (in [8]; in test [9]; in the test with Kochia (Kochia scoparia); in test [10]; in test [11]; in test [12]) was 0% throughout.

`COc1ccc([C@H]2CN(C)C(=O)[C@@H]2C(=O)Nc2ccccc2SC)cc1C(F)(F)F` [Compound 991]: the pest or weed control at 125 g/ha was determined as 0% in [1]; 0% in test [2]; 0% in [3]; 30% in test [4]; 80% in test [5]; 0% in test [7]. The pest or weed control at 125 g/ha came out at 0% in test [8]; 60% in test [9]; 0% with Kochia (Kochia scoparia); 0% in [10]; 70% in [11]; 90% in test [12]. Besides, the Corn plant response rating (crop injury, 0 = no effect, 100 = complete kill) at 125 g/ha in the test on corn (Zea mays) came out at 0%. The plant injury at 125 g/ha in test [6] is 0%. For the same compound, the pest or weed control at 500 g/ha in [8] was 30%; in test [9], 50%; with Kochia (Kochia scoparia), 60%; in [10] it was 50%; in test [11] it was 90%; in test [12] it was 90%.

In the case of `Cc1ccc([C@H]2CCNC(=O)[C@@H]2C(=O)Nc2cccc(F)c2F)cc1` [Compound 973], the pest or weed control at 125 g/ha is 0% in test [1]; 20% in test [2]; 60% in [3]; 30% in test [4]; 70% in [5]; 50% in [7]. In addition, the pest or weed control at 125 g/ha in test [8] was 0%; in test [9], 0%; with Kochia (Kochia scoparia), 0%; in test [10], 0%; in test [11], 90%; in test [12], 90%. The compound further came in with a Corn plant response rating (crop injury, 0 = no effect, 100 = complete kill) at 125 g/ha with corn (Zea mays) of 0%. In addition, in test [6], the plant injury at 125 g/ha was 0%. Besides, the pest or weed control at 500 g/ha in test [8] turned out to be 70%; in test [9], 0%; with Kochia (Kochia scoparia) it was 60%; in [10] it was 30%; in test [11], 90%; in test [12], 90%.
